{"source": "patent US10526336B2", "about": "“Fused heteroaryl derivatives as orexin receptor antagonists” (Merck Sharp & Dohme Corp., priority 2014, dated 2020)", "data": [{"target": "human orexin-2 receptor (Homo sapiens (Human), UniProt O43614)", "sequence (O43614 whole entry)": "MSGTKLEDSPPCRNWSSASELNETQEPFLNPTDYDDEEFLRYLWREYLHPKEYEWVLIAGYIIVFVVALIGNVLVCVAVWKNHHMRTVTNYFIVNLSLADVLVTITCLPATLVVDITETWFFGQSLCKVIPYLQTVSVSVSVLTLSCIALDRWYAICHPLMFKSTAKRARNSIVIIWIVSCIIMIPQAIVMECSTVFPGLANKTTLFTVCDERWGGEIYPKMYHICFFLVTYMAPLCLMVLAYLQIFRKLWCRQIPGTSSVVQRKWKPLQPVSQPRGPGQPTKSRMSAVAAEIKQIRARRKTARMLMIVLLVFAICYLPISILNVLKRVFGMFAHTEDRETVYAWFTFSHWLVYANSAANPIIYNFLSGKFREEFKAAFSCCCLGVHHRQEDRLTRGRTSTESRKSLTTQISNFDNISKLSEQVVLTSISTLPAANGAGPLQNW", "assay": "FLIPR Ca2+ Flux Assay, orexin-2 receptor antagonism in CHO cells", "format": "cell-based", "details": "CHO cells expressing the human orexin-2 receptor; agonist 70 pM Ala-6,12 orexin-A; read-out: hOX2 FLIPR IC50", "procedure": "The utility of the compounds in accordance with the present invention as orexin receptor OX1R and/or OX2R antagonists may be readily determined without undue experimentation by methodology well known in the art, including the “FLIPR Ca^2+ Flux Assay” (Okumura et al., Biochem. Biophys. Res. Comm. 280:976-981, 2001). In a typical experiment the OX1 and OX2 receptor antagonistic activity of the compounds of the present invention was determined in accordance with the following experimental method. For intracellular calcium measurements, Chinese hamster ovary (CHO) cells expressing the rat orexin-1 receptor or the human orexin-2 receptor, are grown in Iscove's modified DMEM containing 2 mM L-glutamine, […], 1% hypoxanthine-thymidine supplement, 100 U/ml penicillin, 100 μg/ml streptomycin and 10% heat-inactivated fetal calf serum (FCS). The cells are seeded at 20,000 cells/well into Becton-Dickinson black 384-well clear bottom sterile plates coated with poly-D-lysine. All reagents are from GIBCO-Invitrogen Corp. The seeded plates are incubated overnight at 37° C. and 5% CO2. Ala-6,12 human orexin-A as the agonist is prepared as a 1 mM stock solution in 1% bovine serum albumin (BSA) and diluted in assay buffer (HBSS containing 20 mM HEPES, 0.1% BSA and 2.5 mM probenecid, pH7.4) for use in the assay at a final concentration of 70 pM. Test compounds are prepared as 10 mM stock solution in DMSO, then diluted in 384-well plates, first in DMSO, then assay buffer. On the day of the assay, cells are washed 3 times with 100 μl assay buffer and then incubated for 60 min (37° C., 5% CO2) in 60 μl assay buffer containing […] Fluo-4AM ester, 0.02% pluronic acid, and 1% BSA. The dye loading solution is then aspirated and cells are washed 3 times with 100 μl assay buffer. 30 μl of that same buffer is left in each well. Within the Fluorescent Imaging Plate Reader (FLIPR, Molecular Devices), test compounds are added to the plate in a volume of 25 μl, incubated for 5 min and finally 25 μl of agonist is added. Fluorescence is measured for each well at 1 second intervals for 5 minutes and the height of each fluorescence peak is compared to the height of the fluorescence peak induced by 70 pM Ala-6,12 orexin-A with buffer in place of antagonist. For each antagonist, IC50 value (the concentration of compound needed to inhibit 50% of the agonist response) is determined. Alternatively, compound potency can be assessed by a radioligand binding assay (described in Bergman et. al. Bioorg. Med. Chem. Lett. 2008, 18, 1425-1430) in which the inhibition constant (Ki) is determined in membranes prepared from CHO cells expressing either the OX1 or OX2 receptor. The intrinsic orexin receptor antagonist activity of a compound which may be used in the present invention may be determined by these assays.", "units": {"IC50": "nM"}, "values": [{"smiles": "C[C@@H]1CC[C@@H](Oc2nccn3c(C(F)F)cnc23)CN1C(=O)c1ccccc1CS(C)(=O)=O", "note": "[Example 39, ((2R,5R)-5-((3-(difluoromethyl)imidazo[1,2-a]pyrazin-8-yl)oxy)-2-methylpiperidin-1-yl)(2-((methylsulfonyl)methyl)phenyl)methanone]", "IC50": 62.6}, {"smiles": "C[C@@H]1CC[C@@H](Oc2nccn3c(C(F)F)cnc23)CN1C(=O)c1ccsc1-n1nccn1", "note": "[Example 40, (2-(2H-1,2,3-triazol-2-yl)thiophen-3-yl)((2R,5R)-5-((3-(difluoromethyl)imidazo[1,2-α]pyrazin-8-yl)oxy)-2-methylpiperidin-1-yl)methanone]", "IC50": 10.5}, {"smiles": "C[C@@H]1CC[C@@H](Oc2nccn3c(C(F)F)cnc23)CN1C(=O)c1cscc1-n1nccn1", "note": "[Example 41, (4-(2H-1,2,3-triazol-2-yl)thiophen-3-yl)((2R,5R)-5-((3-(difluoromethyl)imidazo[1,2-α]pyrazin-8-yl)oxy)-2-methylpiperidin-1-yl)methanone]", "IC50": 45.7}, {"smiles": "C[C@@H]1CC[C@@H](Oc2nccn3c(C(F)F)cnc23)CN1C(=O)c1ccccc1C1(C#N)CC1", "note": "[Example 42, 1-(2-((2R,5R)-5-((3-(difluoromethyl)imidazo[1,2-α]pyrazin-8-yl)oxy)-2-methylpiperidine-1-carbonyl)phenyl)cyclopropanecarbonitrile]", "IC50": 5}, {"smiles": "C[C@@H]1CC[C@@H](Oc2nccn3c(C(F)F)cnc23)CN1C(=O)c1ccc(F)cc1-n1nccn1", "note": "[Example 43, ((2R,5R)-5-((3-(difluoromethyl)imidazo[1,2-α]pyrazin-8-yl)oxy)-2-methylpiperidin-1-yl)(4-fluoro-2-(2H-1,2,3-triazol-2-yl)phenyl)methanone]", "IC50": 15.7}, {"smiles": "C[C@@H]1CC[C@@H](Oc2nccn3c(C(F)F)cnc23)CN1C(=O)c1ccccc1-n1ncnn1", "note": "[Example 44, (2-(2H-tetrazol-2-yl)phenyl)((2R,5R)-5-((3-(difluoromethyl)imidazo[1,2-α]pyrazin-8-yl)oxy)-2-methylpiperidin-1-yl)methanone]", "IC50": 9.6}, {"smiles": "COCc1ccccc1C(=O)N1C[C@H](Oc2nccn3c(C(F)F)cnc23)CC[C@H]1C", "note": "[Example 45, ((2R,5R)-5-((3-(difluoromethyl)imidazo[1,2-α]pyrazin-8-yl)oxy)-2-methylpiperidin-1-yl)(2-(methoxymethyl)phenyl)methanone]", "IC50": 108}, {"smiles": "C[C@@H]1CC[C@@H](Oc2nccn3c(C(F)F)cnc23)CN1C(=O)c1nccnc1-n1cccn1", "note": "[Example 46, (3-(1H-pyrazol-1-yl)pyrazin-2-yl)((2R,5R)-5-((3-(difluoromethyl)imidazo[1,2-α]pyrazin-8-yl)oxy)-2-methylpiperidin-1-yl)methanone]", "IC50": 61.9}, {"smiles": "C[C@@H]1CC[C@@H](Oc2nccn3c(C(F)F)cnc23)CN1C(=O)c1nccnc1-c1ccccn1", "note": "[Example 47, ((2R,5R)-5-((3-(difluoromethyl)imidazo[1,2-α]pyrazin-8-yl)oxy)-2-methylpiperidin-1-yl)(3-(pyridin-2-yl)pyrazin-2-yl)methanone]", "IC50": 64.9}, {"smiles": "COC(=O)c1ccccc1C(=O)N1C[C@H](Oc2nccn3c(C(F)F)cnc23)CC[C@H]1C", "note": "[Example 48, methyl 2-((2R,5R)-5-((3-(difluoromethyl)imidazo[1,2-α]pyrazin-8-yl)oxy)-2-methylpiperidine-1-carbonyl)benzoate]", "IC50": 24.9}, {"smiles": "C[C@@H]1CC[C@@H](Oc2nccn3c(C(F)F)cnc23)CN1C(=O)c1ncccc1-c1ccccc1", "note": "[Example 49, ((2R,5R)-5-((3-(difluoromethyl)imidazo[1,2-α]pyrazin-8-yl)oxy)-2-methylpiperidin-1-yl)(3-phenylpyridin-2-yl)methanone]", "IC50": 51.8}, {"smiles": "C[C@@H]1CC[C@@H](Oc2nccn3c(C(F)F)cnc23)CN1C(=O)c1cccnc1OCC(F)(F)F", "note": "[Example 50, ((2R,5R)-5-((3-(difluoromethyl)imidazo[1,2-α]pyrazin-8-yl)oxy)-2-methylpiperidin-1-yl)(2-(2,2,2-trifluoroethoxy)pyridin-3-yl)methanone]", "IC50": 26.5}, {"smiles": "C[C@@H]1CC[C@@H](Oc2nccn3c(C(F)F)cnc23)CN1C(=O)c1cccnc1OCC(F)F", "note": "[Example 51, (2-(2,2-difluoroethoxy)pyridin-3-yl)((2R,5R)-5-((3-(difluoromethyl)imidazo[1,2-α]pyrazin-8-yl)oxy)-2-methylpiperidin-1-yl) methanone]", "IC50": 31.8}, {"smiles": "C[C@@H]1CC[C@@H](Oc2nccn3c(C(F)F)cnc23)CN1C(=O)c1cccnc1-n1cccn1", "note": "[Example 52, (2-(1H-pyrazol-1-yl)pyridin-3-yl)((2R,5R)-5-((3-(difluoromethyl)imidazo[1,2-α]pyrazin-8-yl)oxy)-2-methylpiperidin-1-yl)methanone]", "IC50": 15.8}, {"smiles": "C[C@@H]1CC[C@@H](Oc2nccn3c(C(F)F)cnc23)CN1C(=O)c1ccccc1-c1cnccn1", "note": "[Example 53, ((2R,5R)-5-((3-(difluoromethyl)imidazo[1,2-α]pyrazin-8-yl)oxy)-2-methylpiperidin-1-yl)(2-(pyrazin-2-yl)phenyl)methanone]", "IC50": 21.3}, {"smiles": "C[C@@H]1CC[C@@H](Oc2nccn3c(C(F)F)cnc23)CN1C(=O)c1ccccc1-c1ncccn1", "note": "[Example 54, ((2R,5R)-5-((3-(difluoromethyl)imidazo[1,2-a]pyrazin-8-yl)oxy)-2-methylpiperidin-1-yl)(2-(pyrimidin-2-yl)phenyl)methanone]", "IC50": 24.1}, {"smiles": "C[C@@H]1CC[C@@H](Oc2nccn3c(C(F)F)cnc23)CN1C(=O)c1cscc1-c1ncccn1", "note": "[Example 55, ((2R,5R)-5-((3-(difluoromethyl)imidazo [1,2-α]pyrazin-8-yl)oxy)-2-methylpiperidin-1-yl)(4-(pyrimidin-2-yl)thiophen-3-yl)methanone]", "IC50": 44.9}, {"smiles": "C[C@@H]1CC[C@@H](Oc2nccn3c(C(F)F)cnc23)CN1C(=O)c1ccsc1-c1ncccn1", "note": "[Example 56, ((2R,5R)-5-((3 (difluoromethyl)imidazo [1,2-α]pyrazin-8-yl)oxy)-2-methylpiperidin-1-yl)(2-(pyrimidin-2-yl)thiophen-3-yl)methanone]", "IC50": 53.7}, {"smiles": "C[C@@H]1CC[C@@H](Oc2nccn3c(C(F)(F)F)cnc23)CN1C(=O)c1ccccc1-n1nccn1", "note": "[Example 57]", "IC50": 13.1}, {"smiles": "C[C@@H]1CC[C@@H](Oc2nccn3c(C(F)(F)F)cnc23)CN1C(=O)c1ccsc1-n1nccn1", "note": "[Example 58, (2-(2H-1,2,3-triazol-2-yl)thiophen-3-yl)((2R,5R)-2-methyl-5-((3-(trifluoromethyl)imidazo[1,2-a]pyrazin-8-yl)oxy)piperidin-1-yl)methanone]", "IC50": 20.4}, {"smiles": "C[C@@H]1CC[C@@H](Oc2nccn3c(C(F)(F)F)cnc23)CN1C(=O)c1ccccc1C1(C#N)CC1", "note": "[Example 59, 1-(2-((2R,5R)-2-methyl-5-((3-(trifluoromethyl)imidazo [1,2-α]pyrazin-8-yl)oxy)piperidine-1-carbonyl)phenyl) cyclopropanecarbonitrile]", "IC50": 12.8}, {"smiles": "C[C@@H]1CC[C@@H](Oc2nccn3c(C(F)(F)F)cnc23)CN1C(=O)c1ccccc1-n1ncnn1", "note": "[Example 60, (2-(2H-tetrazol-2-yl)phenyl)((2R,5R)-2-methyl-5-((3-(trifluoromethyl)imidazo [1,2-α]pyrazin-8-yl)oxy)piperidin-1-yl)methanone]", "IC50": 19}, {"smiles": "C[C@@H]1CC[C@@H](Oc2nccn3c(C(F)(F)F)cnc23)CN1C(=O)c1ccccc1CS(C)(=O)=O", "note": "[Example 61, ((2R,5R)-2-methyl-5-((3-(trifluoromethyl)imidazo [1,2-α]pyrazin-8-yl)oxy)piperidin-1-yl)(2-((methylsulfonyl)methyl)phenyl)methanone]", "IC50": 170}, {"smiles": "C[C@@H]1CC[C@@H](Oc2nccn3c(C(F)(F)F)cnc23)CN1C(=O)c1ncccc1-c1ccccc1", "note": "[Example 62, ((2R,5R)-2-methyl-5-((3-(trifluoromethyl)imidazo [1,2-α]pyrazin-8-yl)oxy)piperidin-1-yl)(3-phenylpyridin-2-yl)methanone]", "IC50": 46.7}, {"smiles": "C[C@@H]1CC[C@@H](Oc2nccn3c(C(F)(F)F)cnc23)CN1C(=O)c1cccnc1OCC(F)(F)F", "note": "[Example 63, ((2R,5R)-2-methyl-5-((3-(trifluoromethyl)imidazo [1,2-α]pyrazin-8-yl)oxy)piperidin-1-yl) (2-(2,2,2-trifluoroethoxy)pyridin-3-yl)methanone]", "IC50": 28.2}]}]}
